The subject of one experiment is PtJBMT. Description: Radiochemical methyltransferase assay (detoxification activity) with PtJBMT. Type of experiment: biochemical. Particulars: 1 mM substrate, 3 μM 14C-SAM, 25° C., 30 min; relative to the activity of PtJBMTm3 with jasmonic acid set as 1. As for the experimental part: (§1) The detoxification activity of PtJBMTm3 was determined using radiochemical methyltransferase assays. The assays were performed with a 50 μL volume containing 50 mM Tris-HCl, pH 7.5, 1 mM of individual auxin mimic herbicides dissolved in water, and 3 μM ^14C—S-Adenosyl methionine (SAM) with a specific activity of 51.4 mCi/mmol (Perkin Elmer, Boston, Mass.). The assay was initiated by addition of SAM, maintained at 25° C. for 30 min, and stopped by addition of […] (150 μL). After phase separation by one min centrifugation at 14,000 g, the upper organic phase was counted using a liquid scintillation counter (Beckman Coulter, Fullerton, Calif.) as previously described (D'Auria et al., 2002). Radioactivity counts in the organic phase indicated the amount of synthesized methyl esters, which are the detoxificated products of individual auxin mimic herbicides. The relative assay activities of PtJBMT and PtJBMTm3 with auxin-based herbicides is illustrated in Table 2 (the activity of PtJBMTm3 with jasmonic acid was set as 1).

Another experiment concerns PtJBMTm3. Description: Radiochemical methyltransferase assay (detoxification activity) with PtJBMTm3. Type of experiment: biochemical. The conditions noted are these: 1 mM substrate, 3 μM 14C-SAM, 25° C., 30 min; for Relative assay activity of PtJBMT M3: relative to the activity of PtJBMTm3 with jasmonic acid set as 1. As for the experimental part: as §1

Take `Nc1c(Cl)c(F)nc(OCC(=O)O)c1Cl` [fluroxypyr]: in the experiment with PtJBMT, the “Relative assay activity of PtJBMT” value is listed as 0.6%. Further, the “Relative assay activity of PtJBMT M3” value in the experiment on PtJBMTm3 worked out at 4.2%.
In the same order, the values of `O=C(O)COc1cc(Cl)c(Cl)cc1Cl` [2,4,5-T] are 0.4% and 25.5%.
As to `CC/C=C\C[C@H]1C(=O)CC[C@@H]1CC(=O)O` [Jasmonic acid], in the experiment with PtJBMT, the “Relative assay activity of PtJBMT” value was determined as 85.1%. The “Relative assay activity of PtJBMT M3 (reference, set as 1)” value in the experiment with PtJBMTm3 (reference value set as 1) is given as 1.
On to `COc1c(Cl)ccc(Cl)c1C(=O)O` [dicamba], for which the “Relative assay activity of PtJBMT” value with PtJBMT was found to be 2.3%. The “Relative assay activity of PtJBMT M3” value with PtJBMTm3 stood at 73.9%.
Regarding `O=C(O)Cc1ccccc1` [PAA], the “Relative assay activity of PtJBMT” value in the experiment on PtJBMT is given as 0.8%. Further, the “Relative assay activity of PtJBMT M3” value in the experiment with PtJBMTm3 came out at 58.3%.
Regarding `CC(Oc1ccc(Cl)cc1Cl)C(=O)O` (centres unmarked) [dichlorprop], in the experiment on PtJBMT, the “Relative assay activity of PtJBMT” value is given as 7.3%. Further, in the experiment on PtJBMTm3, the “Relative assay activity of PtJBMT M3” value is 73.0%.
Take `CC(C)(Oc1ccc(Cl)cc1)C(=O)O` [PCIB]: the “Relative assay activity of PtJBMT” value in the experiment with PtJBMT was 8.0%. The “Relative assay activity of PtJBMT M3” value with PtJBMTm3 stood at 96.9%.
For `Cc1cc(Cl)ccc1OC(C)C(=O)O` (centres unmarked) [mecoprop], in that order: 12.8% and 87.5%.
As for `O=C(O)c1nc(Cl)ccc1Cl` [clopyralid], in the experiment with PtJBMT, the “Relative assay activity of PtJBMT” value is on record as 17.1%. Moreover, the “Relative assay activity of PtJBMT M3” value in the experiment on PtJBMTm3 was 94.1%.
Consider `O=C(O)CCCc1c[nH]c2ccccc12` [IBA], for which the “Relative assay activity of PtJBMT” value in the experiment with PtJBMT was 0.8%. The “Relative assay activity of PtJBMT M3” value in the experiment with PtJBMTm3 is 30.3%.
For `Nc1c(Cl)c(Cl)nc(C(=O)O)c1Cl` [picloram], in that order: 3.7% and 78.1%.
In the same order, the values of `Cc1cc(Cl)ccc1OCC(=O)O` [MCPA] are 3.5% and 70.0%.
On to `O=C(O)COc1ccc(Cl)cc1Cl` [2,4-D, 2,4-dichlorophenoxyacetic acid], for which, in the experiment on PtJBMT, the “Relative assay activity of PtJBMT” value is 1.7%. Besides, the “Relative assay activity of PtJBMT M3” value in the experiment with PtJBMTm3 stood at 57.5%.
Regarding `O=C(O)c1c(Cl)ccc2cc(Cl)cnc12` [quinclorac], the “Relative assay activity of PtJBMT” value with PtJBMT was found to be 11.2%. Also, the “Relative assay activity of PtJBMT M3” value in the experiment with PtJBMTm3 turned out to be 91.3%.
Turning to `O=C(O)Cc1cccc2ccccc12` [NAA], the “Relative assay activity of PtJBMT” value in the experiment with PtJBMT worked out at 7.8%. Further, the “Relative assay activity of PtJBMT M3” value with PtJBMTm3 was determined as 91.8%.
For `O=C(O)Cc1c[nH]c2cccc(Cl)c12` [4-Cl-IAA], in that order: 1.1% and 33.6%.
For `Cc1cc(Cl)ccc1OCCCC(=O)O` [MCPB], in that order: 0.1% and 11.0%.
In the same order, the values of `O=C(O)c1c(Cl)ccc(Cl)c1Cl` [2,3,6 Trichloro-benzoic acid] are 15.0% and 75.4%.
As to `O=C(O)CCCOc1ccc(Cl)cc1Cl` [2,4-DB], the “Relative assay activity of PtJBMT” value with PtJBMT stood at 0.5%. Besides, the “Relative assay activity of PtJBMT M3” value with PtJBMTm3 is recorded as 38.7%.

The values are drawn from patent US20100205696A1, “NOVEL HERBICIDE RESISTANCE GENE” (UNIVERSITY OF TENNESSEE RESEARCH FOUNDATION, priority 2009, published 2010).
